“Also recorded” adds a separate entry of the source.
B1: TGF β2: transforming growth factor β2 (R&D Systems; 302-B2), inducer of endothelial-mesenchymal transition and cardiac fibrosis (protein, UniProt P61812 303-414, looked up)
Transforming growth factor …: ALDAAYCFRNVQDNCCLRPLYIDFKRDLGWKWIHEPKGYNANFCAGACPYLWSSDTQHSRVLSLYNTINPEASASPCCVSQDLEPLTILYYIGKTPKIEQLSNMIVKSCKCS

Legend:
[1] = test system: cardiac tissue mimetics (CTMs); experiment: CTM vascularisation (GFP-HUVEC sprout length, thickness, branch points); assay type: cell-based, rat, human; settings: 200 μM PE with 1 μM Propranolol or 50 μM Metoprolol, 10 days, vs 0.1% DMSO; FIGS. 21, 22
HUVEC spheroids = experiment: Spheroid-based angiogenic sprouting assay; assay type: cell-based, human; settings: for endothelial sprouting of HUVEC spheroids with supernatants of CM cultured with PE plus β-blocker: neonatal rat CM 72 hours with 200 μM PE + 1 μM Propranolol or 50 μM Metoprolol, vs PE alone, FIG. 25
Description: After 72 hours, cell culture supernatants were centrifuged (500×g, 5 minutes) to deplete dead cells and stored at −80° C.
Endothelial cell sprouting was studied by in vitro spheroid-based angiogenesis assays. In brief, HUVECs were trypsinized and transferred into a mixture of fully supplemented EBM™ and methylcellulose (80%:20%). […] After 24 hours, spheroids were collected, pelleted (200×g, 3 minuted), resuspended in methylcellulose supplemented with FCS (80%:20%) and embedded in a collagen Type-I gel (Corning; 354236). HUVEC spheroids were then either cultured with fully supplemented EBM (+/−VEGF (50 ng/mL; BioLegend; 583702) or +/−PE (200 μM)), maintenance medium or conditioned cell culture medium.

HUVEC = experiment: Tube formation assay; assay type: cell-based, human; settings: 1 μM Propranolol or 50 μM Metoprolol, 24 hours on Matrigel, vs Ctrl. and 0.1% DMSO; FIGS. 23, 24
Description: Tube formation assay was performed as previously described (J. U. G. Wagner, E. Chavakis, E. M. Rogg, M. Muhly-Reinholz, S. F. Glaser, S. Gunther, D. John, F. Bonini, A. M. Zeiher, L. Schaefer, M. J. Hannocks, R. A. Boon, S. Dimmeler, 2018, Arterioscler Thromb Vasc Biol 38(5), 1170-1177). Briefly, in vitro tube formation was performed with 2×10^4 HUVECs cultured in 100 μL of fully supplemented EBM™ in 96-well plates (Greiner Bio-One GmbH) that had been coated with 100 μL Matrigel® (Corning; 356234).

[2] = test system: cardiac tissue mimetics (CTMs); experiment: Contractility measurement of CTMs (spontaneous beats per minute; pacing at 1 Hz and 15 V); settings: 200 μM PE with 1 μM Propranolol or 50 μM Metoprolol, 10 days, vs PE + 0.1% DMSO; FIG. 20
[3] = test system: cardiac tissue mimetics (CTMs); experiment: CTM size measurement; settings: 200 μM PE + 1 μM Propranolol / 50 μM Metoprolol vs PE + 0.1% DMSO; FIG. 39
mature CTMs = experiment: Injury assay on mature CTMs (immunofluorescence, SHG, Sirius red); assay type: cell-based, rat, human
Description: In case of whole mount stainings, CTMs were permeabilized with 0.2% Triton® X-100 in PBS for 1 hour at room temperature followed by blocking with 5% horse serum (Sigma-Aldrich) in PBS for 30 minutes at room temperature. Primary antibodies (see Table 1) were diluted 1:200 in 5% horse serum and incubated over night at 4° C. Before using the secondary antibody (see table below), CTMs were washed three times with PBS containing 1% Tween 20 and 0.002% Triton® X-100 (referred as PBT from here after) for 20 minutes at room temperature. Secondary antibodies (1:500) and DAPI (1:1000; Carl-Roth GmbH & Co. KG) were diluted in 5% horse serum together and incubated for 4 hours at room temperature in the dark. […] Cryo-sections were prepared by embedding fixed spheroids in O.C.T medium (Tissue-Tek), snap-freezing them in liquid nitrogen and cutting them in 10 μm thick sections. Sections were permeabilized and blocked for one hour in 0.1% Triton® X100 (in PBS+BSA). Primary antibody incubated with the sections diluted 1:50-1:100 in 1 mM MgCl2, 1 mM CaCl2, 0.1 mM MnCl2, 1% Triton® X-100 or 0.2% saponin over night at 4° C. The next day, sections were washed trice with 0.1% Triton® X100/PBS or 0.2 saponin (five minutes each) and incubated with the secondary antibody diluted 1:200 in 0.1% Triton® X100 or 0.2% saponin (in PBS) for one hour at room temperature in the dark. Finally, sections were washed again trice with 0.1% Triton® X100/PBS or 0.2% saponin and mounted with mounting medium containing DAPI or Hoechst 33342. Endothelial cells were stained with Isolectin B4.
The second-harmonics generation imaging was performed on an upright spectral multiphoton microscope (Leica TCS SP8 DIVE, non-descanned spectral detectors, objective HC IRAPO L 25×/1.00 W) using 10 μm thick CTM sections. A 1045 nm laser was used for SHG and the signal was detected with a PMT and a detection window from 517 nm to 527 nm. A second detection window was used to record autofluorescence for comparison (552 nm to 565 nm).
Sirius red staining was used to determine collagen deposition and fibrosis in paraffin sections of young versus aged mice hearts. In a first step, the paraffin sections were deparaffinised with xylene (twice 10 minutes) and an ethanol series of 100%, 95%, 80%, 70% and 50% ethanol (5 minutes each step), before washing the sections with water and PBS (5 minutes each step). In a second step, a 0.1% Picrosirius Red solution was prepared by solving 0.5 g Sirius Red (Waldeck GmbH) in 500 mL picric acid (Sigma-Aldrich) that incubated with the deparaffinised sections for 1 hour. After washing two times with acidified water, the sections were dehydrated with 100% ethanol, cleared with xylene and mounted with Pertex (Medite) […]

Molecule	angiogenic sprouting in PE-treated CTMs [1]	endothelial sprouting of HUVEC spheroids with supernatants of CM cultured with PE plus β-blocker (HUVEC spheroids)	direct effect on HUVEC tube formation (accumulated tube length) (HUVEC)	frequency of CTM contraction (beats per minute) [2]	PE-induced hypertrophic growth (CTM size, fold change) [3]	EC spheroid growth / vascular network growth and branching (cumulative sprout length), direct treatment (HUVEC spheroids)	endothelial-mesenchymal transition (ECs expressing vimentin, SM22α, collagen III) (mature CTMs; mature CTMs treated 3 days with TGF β2, FIGS. 32, 40)	cardiac fibroblast activation (vimentin staining) (mature CTMs; mature CTMs with or without TGF β2, FIG. 28)	CTM vascularization (angiogenic sprouting) (mature CTMs; mature CTMs, 200 μM PE + 10 ng/mL TGF β2, 3 days, vs PE, FIGS. 26, 27)	collagen deposition (SHG, Sirius Red staining) (mature CTMs; mature CTMs, PE + 10 ng/mL TGF β2, 3 days, FIGS. 29-31)
COCCc1ccc(OCC(O)CNC(C)C)cc1 (centres unmarked) [Metoprolol]	significant decrease	no significant alterations	no differences; also recorded: could not be detected	significantly decreased; also recorded: reduced						
CC(C)NCC(O)COc1cccc2ccccc12 (centres unmarked) [Propranolol]	significant decrease	no significant alterations	no differences; also recorded: could not be detected	significantly decreased; also recorded: reduced	diminished					
VEGF						significantly increased				
B1							occurs; also recorded: single ECs expressing vimentin were found	evidence of cardiac fibroblast activation	slightly increased; also recorded: failed to reach significance	induced; also recorded: augments
